Values quoted from earlier work as cited in patent US6358940B1, “Modified 2-Alkoxyestradiol derivatives with prolonged pharmacological activity” (priority 1999, dated 2002).

Legend:
tubulin polymerization = details: antitubulin activity and cytotoxicity
neovascularization = details: in vivo
[1] = tested on: human non-small cell lung cancer line

Row | SMILES | potency relative to 2-methoxyestradiol (tubulin polymerization) | cytotoxicity (cancer cell cultures) | inhibition of neovascularization (neovascularization; mice) | signs of toxicity (neovascularization; mouse) | apoptotic cell death ([1]; after drug treatment) | wild-type p53 levels ([1]; human non-small cell lung cancer line, with accumulation of p21WAF1/CIP1) | inhibitory effect on angiogenesis (angiogenesis)
1 | CCOc1cc2c(cc1O)CC[C@@H]1[C@@H]2CC[C@]2(C)[C@@H](O)CC[C@@H]12 [2-Ethoxyestradiol] | substantially more potent than 2-methoxyestradiol | – | – | – | – | – | –
2 | CC=Cc1cc2c(cc1O)CCC1C2CCC2(C)C(O)CCC12 (stereo not drawn) [2-((E)-l-propenyl)-estradiol] | substantially more potent than 2-methoxyestradiol | – | – | – | – | – | –
3 | COc1cc2c(cc1O)CC[C@@H]1[C@@H]2CC[C@]2(C)[C@@H](O)CC[C@@H]12 [2-methoxyestradiol] | – | cytotoxic | potent inhibitor of neovascularization | No signs of toxicity | Significant apoptotic cell death | increases wild-type p53 levels | strong inhibitory effect on angiogenesis
